Measured values: patent US8361988B2, “Nucleoside and nucleotide analogues with quaternary carbon centers and methods of use” (Institut de Recherches Cliniques de Montreal, priority 2007, dated 2013)

What was measured:
[1] = target: T1, Drosophila melanogaster dNK (Drosophila melanogaster, UniProt Q9XZT6); assay: Phosphorylation assay (spectrophotometric coupled-enzyme), D. melanogaster dNK; format: biochemical; settings: substrate at 100 μM; 37° C.; 1 mM ATP; triplicate
T1 sequence (Q9XZT6 1-250): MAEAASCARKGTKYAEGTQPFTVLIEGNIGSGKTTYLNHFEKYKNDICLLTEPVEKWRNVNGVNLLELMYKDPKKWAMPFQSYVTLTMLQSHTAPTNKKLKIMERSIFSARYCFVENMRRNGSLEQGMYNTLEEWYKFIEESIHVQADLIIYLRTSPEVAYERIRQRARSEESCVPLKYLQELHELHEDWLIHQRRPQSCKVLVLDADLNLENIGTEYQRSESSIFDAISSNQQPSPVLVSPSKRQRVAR
Protocol: (§1) Compounds of the invention were also tested in a phosphorylation assay using three deoxynucleoside kinases. […] The compounds were at substrate concentration of 100 μM.
(§2) Kinetic assay. […] Briefly, the individual nucleosides at 100 μM were prepared in reaction buffer containing 50 mM Tris-HCl (pH 7.5), 0.1 M KCl, 5 mM MgCl2, 1 mM DTT, 1 mM ATP, 0.21 mM phosphoenolpyruvate, 0.18 mM NADH, and 2 units/ml pyruvate kinase and 2 units/ml lactate dehydrogenase (Roche Biochemicals, Indianapolis, Ind.). Assays were performed at 37° C. by measuring the absorbance change at 340 nm. The enzyme amount was adjusted to limit NADH turnover to 10% over the time of the experiment. All experiments were performed in triplicate.

in vitro [2] = settings: human, NCI H1395 cells
in vitro [3] = settings: human, NCI H2052 cells
ZR-75-1 = assay: MTT cell proliferation assay, ZR-75-1; format: cell-based; settings: Homo sapiens, concentration reducing cell growth by 50% after 72 hours, 1% DMSO
Protocol: (§3) The antitumor activities of the compounds of the invention were evaluated by a cellular proliferation assay. The MTT [3-(4,5-dimethylthiazol-2-yl)-2,5-diphenyltetrazolium bromide] cell proliferation assay, first described by Mosmann (Mosmann T., “Rapid colorimetric assay for cellular growth and survival: application to proliferation and cytotoxicity assays,” J. Immunol. Methods 1983 Dec. 16; 65(1-2):55-63, and incorporated by reference in its entirety) is based on the ability of active mitochondrial reductase enzymes from viable cells to cleave the tetrazolium rings of the pale yellow MTT. The cleavage reaction form a purple formazan crystals which is largely impermeable to cell membranes resulting in its accumulation within healthy cells. Solubilisation of the cells by addition of a detergent liberates and solubilizes the formazan crystals. The number of surviving cells is directly proportional to the level of the formazan product created. The color can then be quantified spectrophotometrically. The production of purple formazan in cells treated with a compound is measured relative to the production in control cells, and dose-response curves can be generated. This assay measures the cell proliferation rate and conversely, when metabolic events lead to apoptosis or necrosis, the reduction in cell viability, thus also allowing the evaluation of the cytotoxicity of the analogues synthesized in the laboratory.
(§4) For Tables 3 and 4, the assays were performed with 1% DMSO. The abbreviation “n.d.” means “not determined.” The values EC50, CC50, and SI have the following definitions.
(§5) Cell growth equals total cell count without any inhibitor after 72 hours minus initial cell count. Total cell counts after 72 hrs of growth range from 230 to 346% of initial cell counts depending on the cell line.
(§6) Total cell counts after 24 hrs of growth range from 103 to 109% of initial cell counts depending on the cell line.
(§7) SI: Selectivity Index is the ratio CC50/EC50.

[4] = MTT cell proliferation assay, ZR-75-1; format: cell-based; settings: human, ZR-75-1 cells, concentration causing 50% cell death of initial cell count over 24 hours, 1% DMSO
Protocol: as §3, §4, §5, §6, §7

human dCK = human dCK (Homo sapiens, UniProt P27707); assay: Phosphorylation assay (spectrophotometric coupled-enzyme), human dCK; format: biochemical; settings: substrate at 100 μM; 37° C.; 1 mM ATP; triplicate
Protocol: as §1, §2

PFSK-1 = assay: MTT cell proliferation assay, PFSK-1; format: cell-based; settings: Homo sapiens, concentration reducing cell growth by 50% after 72 hours, 1% DMSO
Protocol: (§8) The antitumor activities of the compounds of the invention were evaluated by a cellular proliferation assay. […] The cleavage reaction form a purple formazan crystals which is largely impermeable to cell membranes resulting in its accumulation within healthy cells. Solubilisation of the cells by addition of a detergent liberates and solubilizes the formazan crystals. The number of surviving cells is directly proportional to the level of the formazan product created. The color can then be quantified spectrophotometrically. The production of purple formazan in cells treated with a compound is measured relative to the production in control cells, and dose-response curves can be generated. This assay measures the cell proliferation rate and conversely, when metabolic events lead to apoptosis or necrosis, the reduction in cell viability, thus also allowing the evaluation of the cytotoxicity of the analogues synthesized in the laboratory.
as §4
(§9) Cell growth equals total cell count without any inhibitor after 72 hours minus initial cell count.
as §7

[5] = MTT cell proliferation assay, PFSK-1; format: cell-based; settings: human, PFSK-1 cells, concentration causing 50% cell death of initial cell count over 24 hours, 1% DMSO
Protocol: as §8, §4, §9, §7

Panc 02.03 = assay: MTT cell proliferation assay, Panc 02.03; format: cell-based; settings: Homo sapiens, concentration reducing cell growth by 50% after 72 hours, 1% DMSO
Protocol: as §8, §4, §9, §7

[6] = MTT cell proliferation assay, Panc 02.03; format: cell-based; settings: human, Panc 02.03 cells, concentration causing 50% cell death of initial cell count over 24 hours, 1% DMSO
Protocol: as §8, §4, §9, §7

in vitro [7] = settings: human, MOLT-4 cells

Sequence of human dCK (P27707 whole entry): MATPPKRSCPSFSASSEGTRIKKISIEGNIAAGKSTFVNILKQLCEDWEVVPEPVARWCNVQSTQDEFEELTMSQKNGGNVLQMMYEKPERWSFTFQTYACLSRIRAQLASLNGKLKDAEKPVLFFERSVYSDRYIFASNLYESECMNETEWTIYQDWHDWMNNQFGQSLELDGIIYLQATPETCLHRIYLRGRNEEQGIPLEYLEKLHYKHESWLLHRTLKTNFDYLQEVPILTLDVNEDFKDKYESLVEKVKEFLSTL

SMILES | D. melanogaster dNK substrate phosphorylation [1] | CC50 at 24 h (in vitro [2]) [µM] | CC50 at 24 h (in vitro [3]) [µM] | EC50 (ZR-75-1; ZR-75-1, 72 h) [µM] | CC50 at 24 h [4] [µM] | Human dCK kinase substrate phosphorylation (human dCK) | EC50 (PFSK-1; PFSK-1, 72 h) [µM] | CC50 at 24 h [5] [µM] | EC50 (Panc 02.03) [µM] | CC50 at 24 h [6] [µM] | CC50 at 24 h (in vitro [7]) [µM] | EC50 (ZR-75-1) [µM] | EC50 (PFSK-1) [µM]
CC1(CO)C[C@H](n2ccc(N)nc2=O)O[C@@H]1CO (mixture of isomers) [LCB-1011] | 0.35 10^6 μmol/min mg | > 500 | > 500 | > 500 | > 500 | 12 10^−3 μmol/min mg | > 500 | > 500 |  |  |  |  | 
CC1(CO)CC(n2ccc(N)nc2=O)O[C@@H]1CO (mixture of isomers) [LCB-1012] | 5.94 10^6 μmol/min mg | > 500 | > 500 | > 500 | > 500 | 17 10^−3 μmol/min mg | > 500 | > 500 |  |  |  |  | 
CC1(C(N)=O)CC(n2ccc(N)nc2=O)O[C@@H]1CO (mixture of isomers) [LCB-1018] | 0.2 10^6 μmol/min mg | > 500 | > 500 | > 500 | > 500 | 63 10^−3 μmol/min mg | > 500 | > 500 | > 500 | > 500 |  |  | 
Nc1ccn([C@@H]2O[C@H](CO)[C@@H](O)[C@@H]2O)c(=O)n1 [Cytarabine, reference compound] |  | 428 | > 500 |  | > 500 |  |  | > 500 | 300 | > 500 | > 500 | > 500 | 360
COC(=O)c1cn([C@H]2S[C@@H](CO)C(O)[C@@H]2O)nn1 (stereo partly shown) [LCB-1013] | <0.1 10^6 μmol/min mg |  |  |  |  | <1 10^−3 μmol/min mg |  |  |  |  |  |  | 
